# Experiments:
# [1] = Ketogenic activity after oral administration: plasma β-hydroxybutyrate in rats (Ranbut assay); conditions: 300 mg/kg po; for maximum increase of plasma concentration of β-hydroxybutyrate: male Sprague-Dawley rats, versus baseline (T=0)
# Experimental: Male Sprague-Dawley rats (weight range 200-250 g; Clarles River, Margate, Kent) were used. The rats were group-housed in polypropylene cages at a temperature of 21±4° C., 55±20% humidity on a standard 12 hour light/dark cycle (lights on at 6.00 am). […] Animals were acclimatized to these conditions for at least one week before experimentation.
# The sodium salt of D-β-hydroxybutyrate monomer (KTX 0101) was used as a comparator for assessing the bioavailability of the oligomeric compounds described here. […] Control animals received the appropriate vehicle (deionized water at 1 ml/kg) via the same route.
# In Protocol A, blood (approx […]) was collected by cardiac puncture at 15, 30 and 60 minutes after dosing. In Protocol B, blood (approx 5 ml) was collected by cardiac puncture at 30, 120 and 240 minutes after dosing. In Protocol E, blood (approx 5 ml) was collected by cardiac puncture at 120 and 240 minutes after dosing. Animals were killed by CO2 asphyxiation and blood collected by cardiac puncture. Blood was placed into EDTA-coated plasma collection tubes (Sarstedt 5 ml K2E tubes) and kept on ice prior to centrifugation. Tubes were centrifuged in an Eppendorf 570R centrifuge at 4° C. for 5 minutes at 2500 rpm (1000 g). Plasma samples were initially frozen on dry ice and transferred to a −75° C. freezer until required for analysis.
# Commercial clinical assay kits (Ranbut) for the determination of D-β-hydroxybutyrate were obtained from Randox Laboratories (Antrim, UK). The kit quantified NADH via the activity of β-hydroxybutyrate dehydrogenase measured as an increase in OD340 nm. An alkaline pH is necessary to drive the reaction equilibrium towards the production of NADH and acetoacetate.
# This spectrophotometric assay was modified for application to a 96-well microplate format. The reaction rate was then determined from the increase in OD340 nm over a 1 minute time-course, after allowing a necessary period for the reaction rate to settle.
# [2] = Ketogenic activity after intravenous injection: plasma β-hydroxybutyrate in rats (Ranbut assay); type: in vivo, rat; conditions: 300 mg/kg iv; for plasma concentration of β-hydroxybutyrate (increase to): 15 min after injection
# Experimental: Male Sprague-Dawley rats (weight range 200-250 g) were obtained from Charles River, Margate, Kent.
# The compounds were infused via the tail vein at 300 mg/kg (1 ml/kg) over a period of 1 to 2 min.
# Animals were killed 15 min later by CO2 asphyxiation and blood was collected by cardiac puncture.
# [3] = Dissolution in deionized water / water solubility; type: physicochemical; conditions: dissolved at 300 mg/ml in deionized water (KTX 0202: 300 mg/kg [sic])
Compound,maximum increase of plasma concentration of β-hydroxybutyrate [1] [mM],magnitude of increase in plasma β-hydroxybutyrate compared with KTX 0101 ([1]; rats),biological half-life relative to KTX 0101 ([1]; rats),oral bioavailability ([1]; rats),time at which plasma β-hydroxybutyrate was still significantly elevated ([1]; rats) [h],time at which the maximum increase of plasma β-hydroxybutyrate was observed ([1]; rats) [min],time by which plasma β-hydroxybutyrate returned to control values ([1]; rats) [h],bioavailability by the intravenous route [2],"increase of plasma β-hydroxybutyrate at 15 min, more than KTX 0101 ([2]; 15 min) [%]",plasma concentration of β-hydroxybutyrate (increase to) [2] [mM],appearance of the solution [3],pH of the solution [3],time until which plasma β-hydroxybutyrate plateaued at the maximum level ([1]; rats) [min]
"1-3 butandiol, di-(tri(R)-3-hydroxybutyrate)ester [KTX 0203]",0.4,at least as great as those produced by KTX 0101,–,–,–,–,–,–,–,–,–,–,–
"CC(O)CCOC(=O)C[C@@H](C)OC(=O)C[C@@H](C)OC(=O)C[C@@H](C)O (stereo partly drawn) [KTX 0202, 1-(tri(R)-3-hydroxybutyryl-butane-1,3-diol) ester]",0.4,at least as great as those produced by KTX 0101,improved biological half-life relative to KTX 0101,orally bioavailable,2,30,≤ 4,bioavailable when injected via the intravenous route,60,1.7,slightly opaque solution,6.0,–
"C[C@@H](O)CC(=O)[O-].[Na+] [KTX 0101, sodium D-β-hydroxybutyrate, reference compound]",0.4,–,–,–,1,15,≤ 2,–,–,1.0,clear solution,7.0,30
"C[C@@H]1CC(=O)O[C@H](C)CC(=O)O[C@H](C)CC(=O)O1 [(R)-3-β-hydroxybutyrate triolide, reference compound]",0.5,at least as great as that evoked by oral administration of the equivalent dose of KTX 0101,–,–,–,–,–,–,–,–,–,–,–

# Source: patent US7947736B2, “Oligomeric compounds” (BTG International Limited, priority 2004, dated 2011)
